Where a name gives a salt, the structure may show the parent alone.
Experiments:
Format in all cases: physicochemical
[1] = Variable temperature X-ray diffraction
Description: Samples run under non-ambient conditions were mounted on a silicon wafer with heat-conducting compound. The sample was then heated to the appropriate temperature at ca. 10° C.·min^−1 and subsequently held isothermally for ca 2 minutes before data collection was initiated.
In order to probe the stability of the samples of the citrate salts variable temperature X-ray diffraction was carried out. Thus, the salts were scanned under X-ray diffraction conditions at a series of temperatures and the characteristic peaks determined.

[2] = Solid form analysis of salt batches (XRPD, DSC, TGA, GVS); conditions: citrate salt batches
Description: Initial studies into compound I involved analysis of the hydrochloride salt. It was found as summarised in Table 1 below, that the initially prepared hydrochloride salt produces an inconsistent solid form with significant variability in the DSC, TGA, GVS and XRPD pattern (see FIGS. 1 to 16).
The samples of both hydrochloride (comparative) and citrate salts were subjected to X-ray diffraction to determine the characteristic X-ray diffraction pattern. The conditions used were as follows: X-Ray Powder Diffraction patterns were collected on a Siemens D5000 diffractometer using Cu Kα radiation (40 kV, 40 mA), θ-θ goniometer, divergence of V20 and receiving slits, a graphite secondary monochromator and a scintillation counter. The instrument is performance checked using a certified Corundum standard (NIST 1976).
Samples run under ambient conditions were prepared as flat plate specimens using powder as received. Approximately 35 mg of the sample was gently packed into a cavity cut into polished, zero-background (510) silicon wafer. The sample was rotated in its own plane during analysis. The details of the data collection are: • Angular range: 2 to 42°2θ • Step size: 0.05°2θ • Collection time: 4 s·step^1.
Alternatively, X-Ray Powder Diffraction patterns were collected on a Bruker AXS C2 GADDS diffractometer using Cu Kα radiation (40 kV, 40 mA), automated XYZ stage, laser video microscope for auto-sample positioning and a HiStar 2-dimensional area detector. X-ray optics consists of a single Gabel multilayer mirror coupled with a pinhole collimator of 0.3 mm. The beam divergence, i.e. the effective size of the X-ray beam on the sample, was approximately 4 mm. A θ-θ continuous scan mode was employed with a sample-detector distance of 20 cm which gives an effective 2θ range of 3.2°-29.7°. Typically the sample would be exposed to the X-ray beam for 120 seconds.
Samples run under ambient conditions were prepared as flat plate specimens using powder as received without grinding. Approximately 1-2 mg of the sample was lightly pressed on a glass slide to obtain a flat surface.

[3] = Gravimetric Vapour Sorption (GVS) with post-GVS XRPD
[4] = Thermal gravimetric analysis (TGA)
Description: The samples of both hydrochloride (comparative) and citrate salts were subjected to thermal gravimetric analysis and differential scanning calorimetry under the following conditions. DSC data were collected on a TA Instruments Q2000 equipped with a 50 position auto-sampler. The instrument was calibrated for energy and temperature calibration using certified indium. Typically 0.5-3 mg of each sample, in a pin-holed aluminium pan, was heated at 10° C.·min^−1 from 25° C. to 270° C.
TGA data were collected on a TA Instruments Q500 TGA, equipped with a 16 position auto-sampler. The instrument was temperature calibrated using certified Alumel. Typically 5-30 mg of each sample was loaded onto a pre-tared platinum crucible and aluminium DSC pan, and was heated at 10° C.·min^−1 from ambient temperature to 300° C. A nitrogen purge at 60 ml·min^−1 was maintained over the sample. The instrument control software was Thermal Advantage v4.6.6 and the data were analysed using Universal Analysis v4.3A. Alternatively, TGA data were collected on a Mettler TGA/SDTA 851e equipped with a 34 position auto-sampler. The instrument was temperature calibrated using certified indium. Typically 5-30 mg to of each sample was loaded onto a pre-weighed aluminium crucible and was heated at 10° C.·min^−1 from ambient temperature to 300° C. A nitrogen purge at 50 ml·min^−1 was maintained over the sample. The instrument control and data analysis software was STARe v9.01.

C1=C/COCc2cc(ccc2OCCN2CCCC2)Nc2nccc(n2)-c2cccc(c2)COC/1 [Batch Citrate 1, 11-(2-pyrrolidin-1-yl-ethoxy)-14,19-dioxa-5,7,26-triaza-tetracyclo[19.3.1.1(2,6).1(8,12)]heptacosa-1(25),2(26),3,5,8,10,12(27),16,21,23-decaene]
change of X-ray diffraction pattern with temperature [1]: no change irrespective of the temperature
Solid Form Comment [2]: Group A
solid form / XRPD pattern post GVS compared with before ([3]; XRPD after GVS experiment): no change
GVS water taken up ([3]; between 0 and 90% RH): less than 0.8%
hygroscopicity ([3]; result in words): low hygroscopicity
decomposition / degradation temperature in TGA [4]: 180 °C
TGA weight loss before degradation / melt with decomposition ([4]; result in words): no weight loss
